# Values of other authors in US20100022590A1, “Novel compounds” (BIOVITRUM AB (publ.), priority 2008, published 2010).
# Tests used:
# [1] = test system: intraocular pressure (IOP); details: oral administration, healthy volunteers
# [2] = test system: intraocular pressure (IOP); details: orally administered, patients with ocular hypertension
smiles,measurement,setting,value
CC1(C)[C@@H](OC(=O)CCC(=O)O)CC[C@]2(C)[C@H]3C(=O)C=C4[C@@H]5C[C@@](C)(C(=O)O)CC[C@]5(C)CC[C@@]4(C)[C@]3(C)CC[C@@H]12 [carbenoxolone],reduction of intraocular pressure (IOP),[1],20%
same,IOP reduction,[2],10%
